Structures are written as SMILES. Where two headings read alike, the source gives them in different places.

Series [1] has as its system CH4001 (TA100 carrying EGFP^mut1 on chromosome). The protocol: (§1) The EGFP^mut DNA was inserted into the chromosome of Salmonella typhimurium LT2 strain via its putA site approximately 5 minutes away from the termination (ter) region of the chromosome (Elliott, 1992). lacP-EGFP^mut::CAT DNA was amplified with primers that contain sequences for the putA site of S. enterica serovar Typhimurium: 5′-primer […] […] […], which consisted of 50-nt or 55-nt of putA (putA sequences are underlined) and 25-nt or 22-nt sequences flaking lacP-nonEGFP::cat using pEGFP^mut::CAT plasmid as template. The 1.4-kbp PCR products were purified and transformed into bacteria carrying a Red helper plasmid (pKD46) by electroporation (Datsenko and Wanner, 2000). The Linear DNA contained a chloramphenicol gene as a marker for the P22 transduction into the S. typhimurium strain of Ames test, TA100 and TA98 to construct CH4001 and 4003, respectively (Davis, et al., 1980).
(§2) Subsequently, the gene for EGFP^mut was placed in the chromosome of relevant Salmonella typhimurium to establish mutation test strains analogous to that of Ames test. Linear DNA transformation method using λ Red system (Datsenko and Wanner, 2000) was employed to place the EGFP^mut genes at putAP sites (Elliott, 1992) in the wild type Salmonella chromosome, LT2. Then, each EGFP^mut1 and EGFP^mut3 gene was moved to TA100 and TA98 using generalized transducing phage, P22, resulting in a construction of CH 4001 and 4003.
(§3) We tested mutation frequency of these two strains together with conventional Ames test strains, TA100 and TA98, in the presence of mutagens, ENU and ICR191. ENU is known to induce base-pair substitution while ICR191 frameshift mutation (OECD, 1997). His^+ revertants were selected on minimal plates and EGFP^+ revertants were screened on NA plates which allowed visualization of about 10^6 colonies individually. […], a test strain for frameshift mutation, together with TA98, was incubated with 1 mg/plate ICR191.

Series [2] has as its system CH4003 (TA98 carrying EGFP^mut3 on chromosome). The conditions noted are these: for Number of revertants, EGFP^mut2 TA98, phenotype EGFP^+: total 10^6 bacteria plated on NA plates. How it is done:
as §1, §2, §3

For series [3] the test system is unchanged. Description: His+ reversion, strain CH4003. Conditions: for Number of revertants, EGFP^mut2 TA98, phenotype His^+: total 10^6 bacteria plated on minimal media plates. How it is done:
as §1
(§4) The plate-incorporation assay was carried out as described (OECD, 1997). Briefly, bacterial cells from stock cultures were grown for 12 hr in liquid medium at 37° C. A volume of 0.1 mL bacterial suspension was added to 2 mL of top agar (Difco) medium containing 0.6% agar, 0.6% NaCl and 20.96 μg of l-histidine and d-biotin (Sigma). Test solution (or solvent control, or positive control agent) and the S9-mix (0.5 mL/plate; 10% (v/v) S9) or potassium phosphate buffer (0.5 mL/plate; 0.2 M, pH 7.4; Sigma) were also added to the top agar which was then mixed and poured onto the top of Vogel-Bonner minimal medium agar plates (3 replicates/dose for the treated and 6 replicates for the solvent control). Colonies were counted 48 hr after incubation at 37° C. The highest volume of the test solution added per plate was initially limited to 100 μL, and then increased up to 200 μL in confirmation studies.
Subsequently, the gene for EGFP^mut was placed in the chromosome of relevant Salmonella typhimurium to establish mutation test strains analogous to that of Ames test. […]

Series [4] relates to S. typhimurium TA98. The experiment in a line: Ames test, His+ reversion, tester strain TA98. The conditions noted are these: for Number of revertants, TA98, phenotype His^+: total 10^6 bacteria plated on minimal media plates. How it is done:
(§5) S. typhimurium strain of Ames test, TA98 and TA, were purchased and grown following manufacture's instruction (Xenometrix AG, Switzerland). CH4001 and CH4003 strains carrying EGFP^mut DNA on their chromosomes (Table 1) were created as described in Result section.
as §4, §3
For orientation: The Ames test detects mutagens through reverse mutation in bacteria.

Series [5] deals with S. typhimurium TA100. Description: Ames test, His+ reversion, tester strain TA100. How it is done:
as §5, §4
We tested mutation frequency of these two strains together with conventional Ames test strains, TA100 and TA98, in the presence of mutagens, ENU and ICR191. […]

Series [6] has as its system CH4001 (TA100 carrying EGFP^mut1 on chromosome). Description: His+ reversion, strain CH4001. How it is done:
as §1
The plate-incorporation assay was carried out as described (OECD, 1997). Briefly, bacterial cells from stock cultures were grown for 12 hr in liquid medium at 37° C. A volume of 0.1 mL bacterial suspension was added to 2 mL of top agar (Difco) medium containing 0.6% agar, 0.6% NaCl and 20.96 μg of l-histidine and d-biotin (Sigma). […] Colonies were counted 48 hr after incubation at 37° C. […]

The subject of series [7] is MutaFish^1 carrying EGFP^mut1. The experiment in a line: Genotoxicity test in transgenic zebrafish embryos, MutaFish^1. From the text: EGFP^mut plasmid constructed as described above was microinjected into one-cell stage fertilized eggs laid by the AB* zebrafish line (Oregon University, Corvallis, Oreg.) with transposase mRNA. The microinjected eggs were raised to sexual maturity and mated to wild type AB* zebrafish. Subsequently, the resulting embryos were screened for the presence of mCherry fluorescence in the heart. The screened embryos (hereinafter named as F1) were processed for RT-PCR, Western blotting and Southern blotting to verify the genomic integration of mutant EGFP. The F1 embryos were raised again to sexual maturity and mated to each other to generate F2 embryos homozygous for EGFP^mut. F3 embryos, generated by in-cross between F2 zebrafish, were raised again to sexual maturity.
Fertilized eggs were obtained by pair mating transgenic F3 female and nontransgenic male fish. We divided 24 hr embryos, still coated with chorion, into three groups (266 embryos/group) and exposed them for 30 min at 26° C. to 10 ml of 0, 2, or 5 mM ENU in 0.1% Instant Ocean salts (Senja Pharmaceutical, Hyogo, Japan). Mutagenized embryos were then rinsed and kept in a 28.5° C. incubator for three days. […] The pooled surviving larvae were checked for morphological abnormality and EGFP^+ larvae were selected and then scored by FACSAria (BD Biosciences).
We injected Tol2 plasmid encoding EGFP^mut and transposase mRNA into one-cell stage fertilized zebrafish eggs. F1 progeny with germline transmission were selected by PCR and Southern blot analysis as described in the Experimental Protocol.
To evaluate whether these transgenic fishes could detect mutations in vivo, 24 hr embryos obtained by pair mating the transgenic and nontransgenic fish were treated with mutagens for 30 min: MutaFish^1 with ENU (5 mM) and MutaFish^3 with ICR191 (10 mM). Three days after treatment, the number of EGFP^+ larvae was determined (Table 4).

In series [8] the test system is MutaFish^3 carrying EGFP^mut3. Description: Genotoxicity test in transgenic zebrafish embryos, MutaFish^3. It counts as in vivo, zebrafish (Danio rerio). The protocol: Almost all embryos were hatched during this incubation period.
One highly transgene-positive line was established.

Where [9] appears, read: 0.1 mg/plate ENU, total 10^6 bacteria plated on minimal media plates.
[10] abbreviates: EGFP^mut1 MutaFish, 24 hr embryos, 5 mM ENU for 30 min, scored three days after treatment.

`CCN(N=O)C(N)=O` [ENU]: the “Number of revertants, EGFP^mut1 TA100, phenotype EGFP^+” value in series [1] (0.1 mg/plate ENU, total 10^6 bacteria plated on NA plates) stood at 7.1. Besides, the “frequency of EGFP^+ reversion” value in series [1] (in the presence of ENU (0.1 mg/plate), CH4001) was 7.1×10^−6. Moreover, the “Number of revertants, EGFP^mut2 TA98, phenotype EGFP^+” value in series [2] (0.1 mg/plate ENU) is given as 3.2. Further, in series [3] (0.1 mg/plate ENU), the “Number of revertants, EGFP^mut2 TA98, phenotype His^+” value turned out to be 3.5. Also, the “Number of revertants, TA98, phenotype His^+” value in series [4] (0.1 mg/plate ENU) is 3.2. In addition, the “Number of revertants, TA100, phenotype His^+” value in series [5] (setting [9]) worked out at 5.6. Besides, in series [5] (0.1 mg/plate of ENU), the “frequency of His^+ revertants in TA100” value is on record as 5.6×10^−6. Moreover, the “Number of revertants, EGFP^mut1 TA100, phenotype His^+” value in series [6] (setting [9]) was 5.2. Also, the “frequency of His^+ revertants in CH4001” value in series [6] (0.1 mg/plate of ENU) is on record as 5.2×10^−6. Further, in series [7] (setting [10]), the “Morphological abnormality (%)” value came to 20.9% and the “Survival rate (%)” value was 97.3%. The “Mutant frequency × 10^−5” value in series [7] (EGFP^mut1 MutaFish, EGFP^+ larvae, 5 mM ENU for 30 min, three days after treatment) is given as 63 × 10^−5. Further, the “frequency of EGFP^+ larvae” value in series [7] (MutaFish^1, ENU 5 mM for 30 min, three days after treatment) is 6.3×10^−4.
Turning to `COc1ccc2nc3cc(Cl)ccc3c(NCCCNCCCl)c2c1` [ICR191], the “Number of revertants, EGFP^mut2 TA98, phenotype EGFP^+” value in series [2] (1 mg/plate ICR191) is recorded as 456.3. Besides, in series [2] (in the presence of ICR191 (1 mg/plate), CH4003), the “frequency of EGFP^+ revertants” value is given as 456.3×10^−6. Also, the “frequency of EGFP^+ larvae” value in series [8] (MutaFish^3, ICR191 10 mM for 30 min, three days after treatment) is listed as 2.32×10^−3. Further, in series [8] (zebrafish, in vivo), the “Morphological abnormality (%)” value was 24.2%, the “Mutant frequency × 10^−5” value was 232 × 10^−5 and the “Survival rate (%)” value is listed as 79.2%. For the same compound, in series [3] (1 mg/plate ICR191), the “mutation frequency of His^+ revertants in CH4003” value was 420.8×10^−6 and the “Number of revertants, EGFP^mut2 TA98, phenotype His^+” value is 377.6. In addition, in series [4] (1 mg/plate ICR191), the “frequency of His^+ revertants in TA98” value is 327.6×10^−6 and the “Number of revertants, TA98, phenotype His^+” value amounted to 420.8.

Values taken from patent US8729334B2, “Method for determining genotoxicity using non-fluorescent proteins” (priority 2010, dated 2014).
